The test system of this test is liver slices. In words: Effect of acetaminophen on liver oxygen consumption rate (OCR) in microperifusion prototype. It counts as cell-based, rat. The settings on record: two 1 mg liver slices per channel, after about three hours baseline, triplicate channels.

Turning to `CC(=O)Nc1ccc(O)cc1` [acetaminophen], the OCR lowered was 40% (6 mM acetaminophen) and 60% (15 mM acetaminophen).

Values taken from patent US11926812B2, “Pressure-driven, adjustable throughput fluidics for tissue and cell perifusions” (EnTox Sciences, Inc., priority 2017, dated 2024).
